These results are taken from PubChem BioAssay (NCI).

Test systems include UO-31 renal; MDA-MB-435; MALME-3M melanoma; COLO 205 colon; HL-60(TB) leukemia; SF-539 CNS; K-562 leukemia; LOX IMVI melanoma; HS 578T breast; NCI-H226 lung.
Holding throughout (assay): inhibition of tumour cell growth, NCI panel, 48 h

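A five-concentration, 48-hour dose response in 96-well plates underlies each endpoint, interpolated linearly between surrounding concentrations. TGI is the concentration that stops growth completely.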 A value given as a limit tells only on which side of the number the result lay.

On to `C[C@H](CC[C@@H](O)C(C)(C)O)[C@H]1CC[C@@]2(C)[C@@H]3CC=C4[C@@H](CC[C@H](OC5OC(CO)C(O)C(O)C5O)C4(C)C)[C@]3(C)C(=O)C[C@]12C` (stereo not given in full), for which the TGI in the assay on UO-31 renal was above 100 µM; in the assay on MDA-MB-435 it was above 100 µM; in the assay with MALME-3M melanoma, above 100 µM; in the assay with COLO 205 colon, above 100 µM; with HL-60(TB) leukemia, 75.8 µM; in the assay on SF-539 CNS, above 100 µM. The TGI in the assay on K-562 leukemia, with LOX IMVI melanoma, in the assay with HS 578T breast and with NCI-H226 lung was above 100 µM in each case.

On to `CC1=CC(=O)c2cccc(NC3=NCCO3)c21`, for which the TGI in the assay on UO-31 renal is above 100 µM; in the assay with MDA-MB-435, 86.2 µM; with MALME-3M melanoma, 91.6 µM; in the assay on COLO 205 colon, above 100 µM; in the assay on HL-60(TB) leukemia it was 41.2 µM; with SF-539 CNS it was above 100 µM. Moreover, the TGI was above 100 µM with K-562 leukemia, above 100 µM with LOX IMVI melanoma, above 100 µM with HS 578T breast and 87.2 µM with NCI-H226 lung.

With `Clc1ccc(OCC2NC3C=CC32)cn1` (stereo not given), the TGI in the assay with UO-31 renal, in the assay with MDA-MB-435, with MALME-3M melanoma, with COLO 205 colon, in the assay on HL-60(TB) leukemia and in the assay on SF-539 CNS was above 100 µM throughout. For the same compound, the TGI in the assay with K-562 leukemia, in the assay on LOX IMVI melanoma, with HS 578T breast and in the assay on NCI-H226 lung was above 100 µM throughout.

Take `COC(=O)C1=C(OC(=O)/C(=C/c2ccc(Cl)cc2)c2ccccc2)C(C(=O)OC)[C@@]2(O)[C@@H](C(=O)OC)[C@H](C)C[C@@H]1[C@@H]2C(=O)OC` (stereo not given in full): the TGI in the assay with UO-31 renal, with MDA-MB-435, in the assay on MALME-3M melanoma, in the assay with COLO 205 colon, in the assay with HL-60(TB) leukemia and with SF-539 CNS was above 100 µM each time. In addition, the TGI with K-562 leukemia, in the assay with LOX IMVI melanoma, in the assay on HS 578T breast and in the assay with NCI-H226 lung was above 100 µM throughout.

For the compound `N#CSCC1COc2ccccc2O1` (stereo not given), the TGI with UO-31 renal is above 10 µM; in the assay on MDA-MB-435, above 10 µM; with MALME-3M melanoma, above 10 µM; in the assay on COLO 205 colon, above 10 µM; in the assay on HL-60(TB) leukemia, 8.66 µM; in the assay on SF-539 CNS, above 10 µM. Also, the TGI in the assay on K-562 leukemia, in the assay on LOX IMVI melanoma, in the assay with HS 578T breast and in the assay on NCI-H226 lung was above 10 µM in each case.

With `O=C(c1ccc(Cl)cc1)N1N=C(c2ccc(Cl)cc2)CC1(O)c1cc(F)c(Cl)cc1Cl` (stereo not given), the TGI with UO-31 renal was 22.2 µM; with MDA-MB-435, 39.5 µM; with MALME-3M melanoma it was above 100 µM; in the assay on COLO 205 colon, 48.8 µM; in the assay on HL-60(TB) leukemia it was 87 µM; with SF-539 CNS it was above 100 µM. Besides, the TGI in the assay with K-562 leukemia was above 100 µM; in the assay with LOX IMVI melanoma, 43.3 µM; in the assay on HS 578T breast, above 100 µM; in the assay with NCI-H226 lung it was above 100 µM.

With `O=C(NN=C1CCCCC1)Nc1ccccc1Cl`, the TGI with UO-31 renal is above 100 µM; in the assay on MDA-MB-435, 47.5 µM; in the assay on MALME-3M melanoma, above 100 µM; with COLO 205 colon it was above 100 µM; in the assay on HL-60(TB) leukemia, above 100 µM; in the assay with SF-539 CNS, above 100 µM. Further, the TGI in the assay on K-562 leukemia, with LOX IMVI melanoma, with HS 578T breast and in the assay with NCI-H226 lung was above 100 µM in each case.

`CCOC(=O)/C=C(/C(=O)OCC)n1c(=O)c(C)cn(C2CC(N=[N+]=[N-])C(CO)O2)c1=O` (stereo not given): the TGI with UO-31 renal is above 100 µM; in the assay with MDA-MB-435, above 100 µM; with MALME-3M melanoma it was above 100 µM; in the assay with COLO 205 colon, 30.1 µM; in the assay on HL-60(TB) leukemia it was 5.18 µM; in the assay on SF-539 CNS it was 47.9 µM. Moreover, the TGI in the assay on K-562 leukemia, in the assay with LOX IMVI melanoma, in the assay with HS 578T breast and in the assay on NCI-H226 lung was above 100 µM each time.

On to `CN(C)CCCNC(=O)c1cc(NC(=O)c2cc(NC(=O)c3cc(NC(=O)CCCn4ccc(CO)c4CO)cn3C)cn2C)cn1C`, for which the TGI is above 100 µM in the assay on UO-31 renal; 47.7 µM in the assay with MDA-MB-435; 37.4 µM in the assay with MALME-3M melanoma; 53.1 µM in the assay with COLO 205 colon; above 100 µM in the assay with HL-60(TB) leukemia; 33.6 µM with SF-539 CNS. In addition, the TGI was above 100 µM with K-562 leukemia, above 100 µM with LOX IMVI melanoma, 98.2 µM in the assay with HS 578T breast and 13.9 µM in the assay on NCI-H226 lung.

With `CCCCCC(/C=C/[C@@H]1CC(=O)C[C@H]1O[Si](C)(C)C(C)(C)C)OCOCCOC` (stereo not given in full), the TGI was 6.44 µM with UO-31 renal; 4.64 µM in the assay with MDA-MB-435; 5.32 µM in the assay with MALME-3M melanoma; 17.8 µM with COLO 205 colon; above 100 µM in the assay on HL-60(TB) leukemia; 5.98 µM in the assay with SF-539 CNS. Moreover, the TGI came out at 6.43 µM in the assay on K-562 leukemia, 7 µM in the assay with LOX IMVI melanoma, 8.04 µM in the assay with HS 578T breast and 18.8 µM in the assay with NCI-H226 lung.

Take `Cc1ccc([N+](=O)[O-])cc1S(=O)(=O)Nc1ccc(C2=NN(c3ccc([N+](=O)[O-])cc3[N+](=O)[O-])C(c3ccccc3O)C2)cc1` (stereo not given): the TGI in the assay with UO-31 renal, in the assay on MDA-MB-435, in the assay with MALME-3M melanoma, in the assay on COLO 205 colon, with HL-60(TB) leukemia and in the assay with SF-539 CNS was above 100 µM in each case. Further, the TGI in the assay with K-562 leukemia, in the assay with LOX IMVI melanoma, with HS 578T breast and in the assay on NCI-H226 lung was above 100 µM each time.

As for `N#CC1N(C(=O)c2ccc(F)cc2)c2ccccc2N1C(=O)c1ccc(F)cc1`, the TGI was above 100 µM in the assay with UO-31 renal; above 100 µM in the assay on MDA-MB-435; above 100 µM in the assay with MALME-3M melanoma; 45.6 µM with COLO 205 colon; above 100 µM in the assay on HL-60(TB) leukemia; above 100 µM with SF-539 CNS. Also, the TGI in the assay on K-562 leukemia, with LOX IMVI melanoma, in the assay with HS 578T breast and in the assay with NCI-H226 lung was above 100 µM in each case.

For the compound `COc1ccc(N2CCN(c3ccc4c(c3)NCC(=O)N4)CC2)cc1`, the TGI was 70.4 µM in the assay on UO-31 renal; above 100 µM with MDA-MB-435; above 100 µM with MALME-3M melanoma; above 100 µM with COLO 205 colon; 47.5 µM in the assay with HL-60(TB) leukemia; 54.1 µM with SF-539 CNS. Also, the TGI in the assay with K-562 leukemia was above 100 µM; with LOX IMVI melanoma it was above 100 µM; with HS 578T breast, 67.1 µM; with NCI-H226 lung, above 100 µM.
